Reference: ChEMBL document CHEMBL1201862, “PubChem BioAssay data set” (2004)
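All cell lines were grown in 96-well plates and treated with compound for 48 hours. The concentration for 50% growth inhibition is given as GI50.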 Active and inactive are the calls of the source. Cut-off read from the data, not from the text of the source: active = GI50 up to about 1.1 µM and inactive = higher.

Experiments:
Test in all cases: NCI anticancer screen, dose series, 48 h
SK-MEL-2 = tested on: SK-MEL-2
Malme-3M = tested on: Malme-3M
UO-31 = tested on: UO-31
SF-295 = tested on: SF-295
MDA-N = tested on: MDA-N
COLO 205 = tested on: COLO 205
RXF 393 = tested on: RXF 393
Hs-578T = tested on: Hs-578T
IGROV-1 = tested on: IGROV-1
OVCAR-5 = tested on: OVCAR-5
BT-549 = tested on: BT-549
MCF7 = tested on: MCF7
SK-OV-3 = tested on: SK-OV-3
UACC-62 = tested on: UACC-62
NCI-H226 = tested on: NCI-H226
NCI-H460 = tested on: NCI-H460
RPMI-8226 = tested on: RPMI-8226
SR = tested on: SR
A498 = tested on: A498

Row | SMILES | GI50 (SK-MEL-2) | GI50 (Malme-3M) | GI50 (UO-31) | GI50 (SF-295) | GI50 (MDA-N) | GI50 (COLO 205) | GI50 (RXF 393) | GI50 (Hs-578T) | GI50 (IGROV-1) | GI50 (OVCAR-5) | GI50 (BT-549) | GI50 (MCF7) | GI50 (SK-OV-3) | GI50 (UACC-62) | GI50 (NCI-H226) | GI50 (NCI-H460) | GI50 (RPMI-8226) | GI50 (SR) | GI50 (A498)
1 | COC(=O)c1cc(C)ccc1C1CN=NC12Cc1c(C)cc(C)cc1C2=O (stereo not drawn) | 16.4 µM (inactive) | 11.8 µM (inactive) | 23 µM (inactive) | 23.2 µM (inactive) | 14.4 µM (inactive) | 16.7 µM (inactive) | 22.2 µM (inactive) | 18.7 µM (inactive) | 38.2 µM (inactive) | 29.4 µM (inactive) | 24.7 µM (inactive) | 20.6 µM (inactive) | 17 µM (inactive) | 16.9 µM (inactive) | 35.8 µM (inactive) | 18.1 µM (inactive) | – | – | –
2 | COc1ccc(Oc2nc3ccc(C(F)(F)F)cc3nc2-c2ccccc2)cc1 | > 100 µM (inactive) | > 100 µM (inactive) | 1.57 µM (inactive) | > 100 µM (inactive) | – | > 100 µM (inactive) | 50.5 µM (inactive) | > 100 µM (inactive) | > 100 µM (inactive) | > 100 µM (inactive) | 0.361 µM (active) | 65.5 µM (inactive) | > 100 µM (inactive) | > 100 µM (inactive) | > 100 µM (inactive) | > 100 µM (inactive) | 7.23 µM (inactive) | 13.1 µM (inactive) | > 100 µM (inactive)
3 | CS[C@]12[C@@H]3C(=O)N(C)C(=O)[C@@H]3[C@](C)(C(=O)N1C)C(=O)N2c1ccccc1 | > 100 µM (inactive) | > 100 µM (inactive) | > 100 µM (inactive) | > 100 µM (inactive) | > 100 µM (inactive) | > 100 µM (inactive) | > 100 µM (inactive) | > 100 µM (inactive) | > 100 µM (inactive) | > 100 µM (inactive) | > 100 µM (inactive) | > 100 µM (inactive) | > 100 µM (inactive) | > 100 µM (inactive) | > 100 µM (inactive) | – | > 100 µM (inactive) | – | > 100 µM (inactive)
4 | O=C1C[C@@]23CCC4(CC2=CCC[C@H]3O1)OCCO4 | > 100 µM (inactive) | > 100 µM (inactive) | – | > 100 µM (inactive) | > 100 µM (inactive) | > 100 µM (inactive) | > 100 µM (inactive) | > 100 µM (inactive) | > 100 µM (inactive) | > 100 µM (inactive) | – | > 100 µM (inactive) | > 100 µM (inactive) | > 100 µM (inactive) | > 100 µM (inactive) | > 100 µM (inactive) | > 100 µM (inactive) | > 100 µM (inactive) | > 100 µM (inactive)
5 | CCOC(=O)CCC(NC(=O)c1ccc(CNc2nc3cc(N)cc(N)c3nc2-c2ccccc2)cc1)C(=O)OCC (stereo not drawn) | 28.8 µM (inactive) | 18.3 µM (inactive) | > 100 µM (inactive) | > 100 µM (inactive) | – | 27.5 µM (inactive) | > 58.9 µM (inactive) | > 84.5 µM (inactive) | > 87.1 µM (inactive) | > 100 µM (inactive) | > 100 µM (inactive) | > 87.3 µM (inactive) | > 100 µM (inactive) | > 86.3 µM (inactive) | > 100 µM (inactive) | 34 µM (inactive) | – | 3.64 µM (inactive) | > 100 µM (inactive)
6 | CCN(CC)CCNC(=O)c1cc2cc(NC(=O)c3cc4cc([N+](=O)[O-])ccc4[nH]3)ccc2[nH]1 | > 52.6 µM (inactive) | – | > 40.5 µM (inactive) | 27.6 µM (inactive) | 52.8 µM (inactive) | 5.68 µM (inactive) | > 43.9 µM (inactive) | – | 18.1 µM (inactive) | 69.7 µM (inactive) | > 60.8 µM (inactive) | 2.39 µM (inactive) | 25.9 µM (inactive) | 32 µM (inactive) | 56.2 µM (inactive) | 2.92 µM (inactive) | 1.82 µM (inactive) | 7.29 µM (inactive) | 27 µM (inactive)
7 | CC(CC(C)[C@H]1CCC2[C@H]3C(CC(=O)[C@@]21C)[C@@]1(C)CCC(O)C[C@H]1C[C@@H]3O)C(=O)O (stereo partly drawn) | > 100 µM (inactive) | > 100 µM (inactive) | 58.9 µM (inactive) | – | > 100 µM (inactive) | > 100 µM (inactive) | > 100 µM (inactive) | – | > 100 µM (inactive) | > 100 µM (inactive) | > 100 µM (inactive) | 92.3 µM (inactive) | – | > 100 µM (inactive) | > 100 µM (inactive) | 61.8 µM (inactive) | 41.3 µM (inactive) | 18.3 µM (inactive) | > 100 µM (inactive)
8 | OC(CCN1CCCCC1)(c1ccccc1)c1ccccc1 [PRIDINOL] | > 100 µM (inactive) | > 100 µM (inactive) | 55.1 µM (inactive) | > 100 µM (inactive) | > 100 µM (inactive) | > 100 µM (inactive) | > 100 µM (inactive) | – | > 100 µM (inactive) | > 100 µM (inactive) | > 100 µM (inactive) | > 100 µM (inactive) | > 100 µM (inactive) | > 100 µM (inactive) | – | – | 87.1 µM (inactive) | – | > 100 µM (inactive)
